Consider five compounds from patent US10052318B2, “Glutamate agents in the treatment of mental disorders” (YALE UNIVERSITY, priority 2005, dated 2018).

Structures are written as SMILES.

For series [1], the system named is transgenic mice expressing cholera toxin subunit in dopamine D1 receptor-expressing limbic cortical cells. The note with it: cited from earlier work; for perseverative (OCD-like) behaviors: baseline behaviors of the transgenic mice.
Series [2] has as its system animal model of Amyotrophic Lateral Sclerosis (ALS). The note with it: by increasing glutamate transport, L-[3H] glutamate uptake into cortical membrane; Rothstein et al. 2005; cited from earlier work.
A further series concerns C57BL/6J mice. The series is described as follows: Tail suspension test. As to conditions: after 7 days, 1 injection/day, versus saline. The series is classed as in vivo.
Series [3] relates to glial glutamate uptake transporter. The note with it: Rothstein et al., Nature 2005; cited from earlier work.
The test system of series [4] is patient with SRI-refractory OCD. The series can be described thus: Case report two: N-acetylcysteine augmentation of fluvoxamine in SRI-refractory OCD. The format is in vivo, human. From the text:
A person presented to our clinic seeking help for persistent and severe OCD symptoms. Diagnosis of OCD was confirmed using the Structured Clinical Interview for DSM-IV Axis I Disorders-Clinician Version. First et al., Structured clinical interview for DSM-IV Axis I Disorders (SCID-I Clinician Version), American Psychiatric Press, Inc., Washington, D.C., 1997. After informed consent, a person was admitted to the Clinical Neuroscience Research Unit of the Abraham Ribicoff Research Facilities (New Haven, Conn.) and treated clinically with an off-label use of NAC augmentation of fluvoxamine. OCD symptoms were followed using weekly Yale-Brown Obsessive-Compulsive Scale (Y-BOCS) ratings. NAC (United States Pharmacia grade and in capsule form) was initiated at a starting dose of 600 mg PO daily and titrated upward to a total daily dose of 3 grams per day over 6 weeks. NAC was continued at the dose of 3 grams per day for an additional seven weeks. Fluvoxamine 300 mg was continued throughout the NAC treatment period. A person remained on the inpatient unit throughout the treatment period and received supportive psychotherapy. […] In fact, they were resistant to implementing behavioral interventions given the past failure of such interventions.

Series [5] relates to patients with anxiety symptoms. The series is described as follows: Riluzole addition in patients with anxiety and mood symptoms (HAM-A). The series is classed as in vivo, human.
The test system of series [6] is patients with treatment-resistant depression. The series can be described thus: Riluzole addition in control group with treatment-resistant depression. The note with it: control group with treatment-resistant depression alone.
Series [7] has as its system patient with Trichotillomania. The series is described as follows: Case report: riluzole addition in trichotillomania. The format is in vivo, human.
In series [8] the test system is patient with severe, chronic TTM. The series can be described thus: Case report one: riluzole in trichotillomania and recurrent major depression. The format is in vivo, human.

Regarding `NS(=O)(=O)c1cccc2c1c([N+](=O)[O-])cc1nc(O)c(O)nc12` [NBQX], the “perseverative (OCD-like) behaviors” value in series [1] is “does not affect”. Moreover, the “worsening of OCD-like behaviors induced by MK-801” value in series [1] (transgenic mice given MK-801) is “does not attenuate”.
As for `CO/N=C(\C(=O)N[C@@H]1C(=O)N2C(C(=O)O)=C(CSc3nc(=O)c(=O)[nH]n3C)CS[C@H]12)c1csc(N)n1` [Ceftriaxone, ceftriaxone], in series [2], the neuroprotection result was “neuroprotective”. Besides, the “decrease in the immobility time” value in the series on C57BL/6J mice (C57BL/6J males, 10 animals/group) is approximately 20%. In the series on C57BL/6J mice, the bouts of immobility entry is given as “decreased bouts of immobility” and the latency entry was “trend for increased latency”. The “upregulation of the glial glutamate transporter” value in [3] is “upregulated the glial glutamate transporter more so than many other drugs”.
`CC(=O)N[C@@H](CS)C(=O)O` [NAC, N-acetylcysteine]: the Y-BOCS score entry in series [4] (NAC 600 mg daily titrated to 3 grams per day over 6 weeks, continued seven weeks, fluvoxamine 300 mg) is “dramatically decreased”. In addition, in series [4] (NAC up to 3 grams per day), the side effects result was “a few episodes of mild, brief right hand tingling and a single day of xerostomia”. Moreover, the routine lab monitoring result in series [4] (over the course of admission) is “no further abnormalities”. Besides, in [4] (two month follow-up visit, same dose of NAC and fluvoxamine), the “OCD symptoms at follow-up” value is given as “remained improved”.
With `C[C@]12N[C@H](Cc3ccccc31)c1ccccc12` [MK-801], in series [1], the “perseverative (OCD-like) behaviors” value was “worsen”.
Regarding `Nc1nc2ccc(OC(F)(F)F)cc2s1` [Riluzole, riluzole], the “reduction in HAM-A scores post study treatment” value in [5] (Subjects P3, P5, P6, P7, P11, P12) is listed as not below 35%. In [5] (riluzole 50 mg twice a day), the “HAM-A scores for the group over time” value is “significantly improved” and the “tolerability / adverse effects” value was “well tolerated with no serious adverse effects noted”. For the same compound, the “Mean Pre-Treatment HAM-A” value in [5] (thirteen participants, before riluzole) is given as 18.2+/−6.2. Also, the “Mean Post-Treatment HAM-A” value in [5] (thirteen participants, riluzole 50 mg twice a day added to existing pharmacotherapy) was 12.8+/−7.2. Also, the “HAM-D scores in response to riluzole” value in series [6] is given as “significant improvement”. The Trichotillomania symptoms entry in series [7] (A person, riluzole up to 100 mg twice a day) is listed as “cessation of Trichotollomania symptoms”. Moreover, the “Reduction in PITS score” value in [7] (after 6 weeks of riluzole addition to Lexapro 30 mg, 50 mg titrated to 100 mg twice a day) amounted to 74%. In addition, the “Reduction in MGH Pulling Scale Score” value in series [7] (after 12 weeks of treatment with riluzole) is recorded as more than 35%. Also, the “urges to pull hair at follow-up” value in series [8] (72 weeks after initiating riluzole, 100 mg twice a day) is “minimal and readily ignored”. In addition, the “TTM ratings (PITS, MGH Hairpulling Scale)” value in series [8] (at presentation PITS 23, MGH 17, after up-titration of riluzole) was “corresponding fall”. The compound further registered an HAM-D at presentation in series [8] (before riluzole, on escitalopram 30 mg daily) of 26. This compound gave an HAM-D in series [8] (week 16, riluzole titrated from 50 mg twice a day to 200 mg daily) of 7. In series [8] (with up-titration of riluzole to 150 mg and then 200 mg daily), the “urges to pull hair” value is recorded as “vanished entirely”.
